{"source": "patent US10513689B2", "about": "“Culture media for multipotent stem cells” (Hope Biosciences LLC, priority 2016, dated 2019)", "origin": "cited, not measured here", "test_system": "MSCs", "conditions": "Tamama et al., 2010"}
{"substance": "EGF: Epidermal growth factor, mitogen of MSCs", "values": [{"measurement": "increase in the number of colony-forming units", "value": 25, "unit": "%"}]}
